Experimental data: patent US20090076130A1, “COMPOUNDS FOR THE INHIBITION OF HISTONE DEACETYLASE” (NATUREWISE BIOTECH & MEDICALS CORPORATION, priority 2007, published 2009)

Tests used:
[1] = test system: human giloblastoma DBTRG-05MG cancer cells; assay: Growth and morphology of human giloblastoma DBTRG-05MG cancer cells; type: cell-based; conditions: 72 hours
Protocol: The human giloblastoma DBTRG-05MG cancer cells were cultured in RPMI medium 1640 (Gibco) supplemented with penicillin G, streptomycin sulphate, 0.5 mM of L-glutamine and 10% fetal bovine serum (FBS; Gibco), 100 mh/L sodium pyruvate (Gibco), and 1% NEAA (Gibco) at 37° C., 5% CO2 and 95% relative humidity. For these experiments, the cells were seeded at a density of 3×10^5 per well of 6-well plates. After 24 hours, the cells were treated with different concentrations of NBM-HD-1 and 4 mM sodium butyrate. The cells were observed and counted after 72 hours. […] In 05MG cells (FIG. 7(A)), after incubation with 2.5 μg/mL (FIG. 7(A)-b), 5 μg/mL (FIG. 7(A)-c) and 10 μg/mL (FIG. 7(A)-d) of NBM-HD-1 for 72 hours, the density of the cells reduced dramatically in comparison with that of the control group (FIG. 7(A)-a). The 05MG cells in the experimental group also changed to become longer than those in the control group.

[2] = test system: MCF-7 cancer cells; assay: Cell cycle / DNA of MCF-7 cells by FACScan cytometry; type: cell-based, human; conditions: 72 hours
Protocol: (§1) 1×10^6 of rat C6 glioma cells were treated with various concentrations of NBM-HD-1 (0 μg/mL, 2.5 μg/mL, 5 μg/mL, and 10 μg/mL) for 72 hours. The treated cells were trysinized and collected. The cells were resuspended in 200 μL PBS and then fixed by adding 800 μL of cold 100% ethanol. The resulting cells were fixed overnight at −20°. The cell pellets were collected by centrifugation, resuspended in 1 mL of hypotonic buffer (0.5% Triton X-100 in PBS and 1 μg/mL RNase A), and incubated at 37° for 30 minutes. Then, 1 mL of PI solution (50 μg/mL) was added to the resulting cell pellets. The mixture was allowed to stand at 4° for 30 min. The DNA amounts of the cells were analyzed by FACScan Cytometry (Becton Dickinson) (see FIG. 2).
MCF-7 cancer cells (1×10^6) in a 100-mm dish were treated with various concentrations of NBM-HD-1 (0, 2.5, 5, and 10 μg/mL) or 4 mM sodium butyrate for 72 hours. The samples were prepared following the steps mentioned in [0063]. The DNA of the cells was then analyzed by FACScan cytometry (Becton Dickinson). […] The percentage of G0/G1 phase increased from 74.46 to 92.55 in a dose-dependent manner.

[3] = test system: cyclinD1, cyclinB1, p21; assay: RT-PCR of cell cycle regulator genes in C6 glioma cells; type: cell-based, rat; conditions: GAPDH internal control
Protocol: For the rat C6 glioma cells, the cell cycle related to mRNA expression was examined by RT-PCR. The total RNAs were isolated from the treated C6 cells by using the RNeasy Mini Kit (Qiagen) according to the manufacturer's instructions. The cDNAs were produced from 500 ng of total RNAs using ReverTra-Plus-™ (TOYOBO). The RT product (1 μl) was amplified by PCR with primers to analyze several genes of cell cycle by using GAPDH as an internal control. According to the results of FIG. 3, NBM-HD-1 can modulate the expression of some cell cycle regulators. […] On the contrary, the expression of p21 was increased.

[4] = test system: cortical neurons; assay: Neurite outgrowth of cortical neurons from fetal rat neural stem cells; type: cell-based, Wistar rat; conditions: 0.63 μg/mL, 6 days, vs DMSO control
Protocol: The growth medium for the NSCs (neural stem cells) and cortical neurons was prepared by adding penicillin G, streptomycin and 0.5 mM of L-glutamine into a B-27 supplemented neurobasal medium (Gibco). The unborn fetus was taken out of the fetal sac in the abdominal cavity of a 17-day pregnant Wistar rat under anesthesia. The cerebral tissue was removed from the fetus and treated with 0.1% trypsin solution at 25° C. for three minutes. After washing with PBS solution 3 times, the cells were dissociated by up and down mixing. The resulting solution was passed through a 70 μm Nylon cell strainer (Falcon) in order to obtain the filtrate that contained cerebral cells. The filtrate was centrifuged at 1000 rpm for 10 minutes and the supernatant was aspirated. The resulting pellet was resuspended in the growth medium prepared as stated above. The resulting suspension contained NSCs.
The cells obtained from the suspension were cultivated in 6-well plates coated with 30 μg/ml of poly-D-lysine (Sigma) at the density of 75 cells/mm^2. The cells were cultured at 37° C., 5% CO2 and 95% relative humidity. The growth media contained 0.63 μg/mL of NBM-HD-1 and the growth media with 1 μl of DMSO was used as the control. […]
After cultivation for 6 days, live cells were observed by microscope. The lengths of the neurites of the neurons in 6 different fields were measured and averaged. […]

[5] = test system: rat C6 glioma cells; assay: Cell cycle / DNA content of C6 glioma cells by FACScan cytometry; type: cell-based; conditions: 0, 2.5, 5, 10 μg/mL, 72 hours, PI staining
Protocol: as §1

[6] = test system: GFAP; assay: GFAP expression in C6 glioma cells (immuno-fluorescent staining, RT-PCR); type: cell-based, rat
Protocol: After the C6 glioma cells were incubated with 10 μg/mL NBM-HD-1 for 24 hours, they were fixed and analyzed by the traditional immuno-fluorescent staining method. Staining of glia was carried out by using glial-specific GFAP antibody (SIGMA) as the primary antibody and a fluorescence labeled rabbit immuno-globulin (SIGMA) as the secondary antibody to bind with the primary antibody. The cells which are GFAP-positive were excited by a specific light source to emit fluorescence. Also, the nuclei were stained with DAPI. […] In contrast with the control group, more GFAP proteins were detected in the photos of the cells being treated with 10 μg/mL of NBM-HD-1.
The GFAP mRNA expression was examined by RT-PCR.

COc1cc2c(c(OC)c1CCC(C)(C)O)C(=O)C[C@@H](c1ccc(OC)c(OC)c1C/C=C(\C)CCCC(C)(C)O)O2 [NBM-HD-1]
morphology of 05MG cancer cells ([1]; 2.5, 5, 10 μg/mL): change the morphology of 05MG cancer cells
growth of 05MG cancer cells ([1]; NBM-HD-1 2.5, 5, 10 μg/mL or 4 mM sodium butyrate): can inhibit the growth of 05MG cells in a dose-dependent manner
cell cycle of MCF-7 cells ([2]; 0, 2.5, 5, 10 μg/mL): arrested on the G0/G1 phase in a dose-dependent manner
S and G2/M phases of the cells ([2]; MCF-7, 0, 2.5, 5, 10 μg/mL): significantly decreased both S and G2/M phases of the cells in a dose-dependent manner
expression of cyclinD1 and cyclinB1 [3]: decrease the expression of cyclinD1 and cyclinB1 in a dose-dependent manner
expression of p21 [3]: increased
neurite outgrowth (length of the neurites) [4]: could promote the neurite outgrowth
cell cycle of C6 glioma cells [5]: cell cycle arrest on the G0/G1 phase in a dose-dependent manner
GFAP expression (immuno-fluorescent staining) ([6]; 10 μg/mL, 24 hours): can induce the GFAP expression of C6 glioma cancer cells
GFAP mRNA expression ([6]; RT-PCR): increased in a dose-dependent manner
